Experimental data reported in patent US11896589B2, “Diazinyl amino acridines and medical uses thereof” (MyCural Therapeutics AB, priority 2018, dated 2024).

Tests used:
[1] = target: T1, FRA1:JUN interaction in MDA-MB231 cells (Homo sapiens, UniProt P05412+P15407); assay: Assay 3A isPLA assay, FRA1:JUN; assay type: cell-based; settings: 10 μM
T1 construct: endogenous in cells; host or cells: MDA-MB231
Method: (§1) FIG. 4: A) Endogenous MYC:MAX (upper panel) and FRA1:JUN (lower panel) interactions as visualized as fluorescent red dots by isPLA. Nuclei were counterstained with DAPI (blue). Cells were treated with 10 μM of indicated compounds for 16 hours and subjected to isPLA using pairs of MYC and MAX and of FRA1 and JUN antibodies, respectively. As negative control, primary antibody pairs but only one oligo-conjugated secondary antibody was used. B) Quantification of MYC:MAX and C) FRA1:JUN isPLA, representing an average number of nuclear dots per cell from three microscopic fields normalized to corresponding values for DMSO-treated cells. […] 1st-4th lanes from top; coimmunoprecipitated MAX, immunoprecipitated MYC, total levels of MAX and ACTIN, respectively, as determined by western blot analysis. E) MYC:MAX GLuc assay in cells. […] 24 hours later cells were treated with […] of Example 1, Example 2 and control compound for 16 hours and thereafter analyzed in a dual luciferase assay. The ratio of Gaussia/Firefly luciferase luminescence were calculated and normalized to DMSO-treated cells.
(§2) Identification of endogenous protein-protein interactions in fixed cells and has been described (Soderberg, O. et al., Nat Methods, 3, 995-1000 (2006)). […] Endogenous MYC:MAX or FRA-1:JUN protein interactions were visualized by fluorescence microscopy as fluorescent dots mainly localized in the cell nucleus. […]

[2] = system: Tgr and H0Myc3 Rat1 fibroblast cells; assay: Assay 5B Tgr cell growth (WST-1), MYC expressing; assay type: cell-based, rat; settings: 48 hours
Method: FIG. 6: A-B) Neuroblastoma cell lines with (SK-N-DZ, Kelly and IMR-32) or without (SK-N-F1, SK-N-RA and SK-N-AS) MYCN-amplification were exposed to different concentrations of Example 1, Example 2 and control compound, respectively, for 48 hours. Cell growth and viability was estimated by measuring metabolic activity. C) Growth of TGR-1 (wt), HO15.19 (MYC knockout) and HOmyc3 (MYC reconstituted HO15.19) Rat1 fibroblasts, as measured by the WST-1 assay after treatment with Example 1. Data are shown as mean±standard deviation of 3-5 biological experiments, each with 3 technical repeats.
Assay 5B: Tgr Cell Growth
Tgr cells were treated at 37° C. and 5% CO2 at 48 hours with Example and Example 2. H015.19 is a MYC null rat cell line derived from Tgr1 (parental cells), while H0Myc3 cells were generated from the MYC null cells by reconstitution of a MYC gene(Mateyak, M. K., Obaya, A. J., Adachi, S. & Sedivy, J. M. Phenotypes of c-Myc-deficient rat fibroblasts isolated by targeted homologous recombination. Cell Growth Differ 8, 1039-1048 (1997)).

[3] = target: T2, endogenous MYC:MAX interaction in MDA-MB231 cells (Homo sapiens, UniProt P01106); assay: Assay 3A isPLA assay, MYC:MAX; assay type: cell-based
T2 construct: endogenous in cells; host or cells: MDA-MB231
T2 sequence (P01106 whole entry): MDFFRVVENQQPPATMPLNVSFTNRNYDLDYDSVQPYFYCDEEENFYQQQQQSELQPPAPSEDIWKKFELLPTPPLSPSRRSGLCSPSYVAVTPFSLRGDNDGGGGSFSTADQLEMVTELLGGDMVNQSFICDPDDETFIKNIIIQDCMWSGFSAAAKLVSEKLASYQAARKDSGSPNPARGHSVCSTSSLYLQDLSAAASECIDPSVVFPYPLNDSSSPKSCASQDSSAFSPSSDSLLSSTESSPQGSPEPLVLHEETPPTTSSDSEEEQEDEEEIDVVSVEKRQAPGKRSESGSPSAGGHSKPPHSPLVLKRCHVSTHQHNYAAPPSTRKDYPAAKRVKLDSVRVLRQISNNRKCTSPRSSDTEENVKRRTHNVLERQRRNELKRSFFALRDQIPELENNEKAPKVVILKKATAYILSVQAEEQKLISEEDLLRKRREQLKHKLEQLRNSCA
Excerpt: as §1, with “Cells were treated with 10 μM of indicated compounds for 16 hours and subjected to isPLA using pairs of MYC and MAX and of FRA1 and JUN antibodies, respectively.” left out
Assay 3A: The isPLA Assay
as §2

T1 sequence (P15407 whole entry): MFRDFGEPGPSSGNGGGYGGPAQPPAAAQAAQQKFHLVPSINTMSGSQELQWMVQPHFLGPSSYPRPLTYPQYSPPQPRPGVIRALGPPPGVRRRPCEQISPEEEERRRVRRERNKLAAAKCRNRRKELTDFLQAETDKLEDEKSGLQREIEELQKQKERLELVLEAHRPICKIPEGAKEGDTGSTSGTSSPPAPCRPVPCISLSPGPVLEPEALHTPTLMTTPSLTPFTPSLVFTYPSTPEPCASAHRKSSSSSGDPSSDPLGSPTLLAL
T1 sequence (P05412 whole entry): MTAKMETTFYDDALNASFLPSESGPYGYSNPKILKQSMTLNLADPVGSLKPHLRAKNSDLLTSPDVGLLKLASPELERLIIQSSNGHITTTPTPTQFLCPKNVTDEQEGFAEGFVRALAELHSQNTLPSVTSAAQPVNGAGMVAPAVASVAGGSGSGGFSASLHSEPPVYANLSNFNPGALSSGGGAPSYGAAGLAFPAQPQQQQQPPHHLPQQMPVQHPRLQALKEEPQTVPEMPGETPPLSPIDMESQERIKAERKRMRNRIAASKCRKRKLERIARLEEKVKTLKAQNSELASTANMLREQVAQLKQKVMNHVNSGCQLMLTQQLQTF

For `CCOc1ccc2nc3cc(/N=N/c4ccc(N)nc4N)ccc3c(N)c2c1` [Example 1, 3-((9-amino-7-ethoxyacridin-3-yl)diazenyl)pyridine-2,6-diamine sulphate hydrate], the “effect on FRA1:JUN interaction (isPLA)” value [1] was “not affecting”, the “growth of wt and reconstituted cells” value [2] was “strongly inhibited” and the GI50 ([2]; Rattus norvegicus, Fibroblast, first run) was 4 µM. The “isPLA signals, % of DMSO control” value ([3]; 10 μM, 24 hours) was 7% and the inhibition at 10 µM ([3]; MDA-MB-231) was 95%.
